# Activity calls are given as the source filed them. The calls are words filed in the database; no cut-off is given here.
# Assays:
# Mus musculus [1] = species on record: Mus musculus; test: In vitro immunosuppressive activity by splenocyte mitogenesis assay in spleen cells from BDF1 female mice at 1 pM to 10 uM concentration; not active; format: functional, cell-based
# [2] = Binding affinity for FK506 binding protein; details: read-out: Ki app
# Mus musculus [3] = species on record: Mus musculus; test: In vitro immunosuppressive activity by splenocyte mitogenesis assay in spleen cells from BDF1 female mice at 1 pM to 10 uM concentration; format: functional, cell-based
# [4] = Binding affinity for FK506 binding protein; value ranges from 2-6 nM; details: read-out: Ki app
Ki [2],IC50 (Mus musculus [3]),Ki [4],Structure (SMILES),Activity (Mus musculus [1])
29 nM,–,–,COC(=O)[C@@H]1CCCCN1C(=O)C(=O)[C@]1(O)O[C@H](C[C@H](OC)/C(C)=C/C=C/C=C\[C@@H](C)C[C@@H](C)C(=O)[C@H](OC)[C@H](O)/C(C)=C/[C@@H](C)C(=O)/C=C/[C@H](C)C[C@@H]2CC[C@@H](O)[C@H](OC)C2)CC[C@H]1C,inactive
41 nM,–,–,COCC(=O)[C@H](C)C[C@H](C)\C=C/C=C/C=C(\C)[C@H](C[C@@H]1CC[C@@H](C)[C@](O)(C(=O)C(=O)N2CCCC[C@H]2C(=O)OC(C)c2ccccc2)O1)OC (stereo partly drawn),inactive
32 nM,–,–,COCC(=O)[C@H](C)C[C@H](C)\C=C/C=C/C=C(\C)[C@H](C[C@@H]1CC[C@@H](C)[C@](O)(C(=O)C(=O)N2CCCC[C@H]2C(=O)NCCCc2ccccc2)O1)OC,inactive
51 nM,–,–,COCC(=O)[C@H](C)C[C@H](C)\C=C/C=C/C=C(\C)[C@H](C[C@@H]1CC[C@@H](C)[C@](O)(C(=O)C(=O)N2CCCC[C@H]2C(=O)OC(C)C)O1)OC,inactive
43 nM,–,–,COCC(=O)[C@H](C)C[C@H](C)\C=C/C=C/C=C(\C)[C@H](C[C@@H]1CC[C@@H](C)[C@](O)(C(=O)C(=O)N2CCCC[C@H]2C(=O)OCCCc2ccc(OC)c(OC)c2)O1)OC,inactive
12 nM,–,–,COCC(=O)[C@H](C)C[C@H](C)\C=C/C=C/C=C(\C)[C@H](C[C@@H]1CC[C@@H](C)[C@](O)(C(=O)C(=O)N2CCCC[C@H]2C(=O)OC)O1)OC,inactive
20 nM,–,–,CCC(C)(C)C(=O)C(=O)N1CCCC[C@H]1C(=O)O[C@@H](CC(=O)[C@H](C)/C=C(\C)[C@@H](O)[C@@H](OC)C(=O)[C@H](C)C[C@H](C)\C=C/C=C/C=C(\C)[C@H](C[C@@H]1CC[C@@H](C)C(=O)O1)OC)[C@H](C)C[C@@H]1CC[C@@H](O)[C@H](OC)C1,inactive
4 nM,–,–,COCC(=O)[C@H](C)C[C@H](C)\C=C/C=C/C=C(\C)[C@H](C[C@@H]1CC[C@@H](C)[C@](O)(C(=O)C(=O)N2CCCC[C@H]2C(=O)O[C@@H](CC(=O)[C@H](C)/C=C(\C)C=O)[C@H](C)C[C@@H]2CC[C@@H](O)[C@H](OC)C2)O1)OC,inactive
31 nM,–,–,COCC(=O)[C@H](C)C[C@H](C)\C=C/C=C/C=C(\C)[C@H](C[C@@H]1CC[C@@H](C)[C@](O)(C(=O)C(=O)N2CCCC[C@H]2C(=O)OC/C=C/c2ccccc2)O1)OC,inactive
0.5 nM,1 nM,–,CO[C@H]1C[C@@H]2CC[C@@H](C)[C@@](O)(O2)C(=O)C(=O)N2CCCC[C@H]2C(=O)O[C@H]([C@H](C)C[C@@H]2CC[C@@H](O)[C@H](OC)C2)CC(=O)[C@H](C)/C=C(\C)[C@@H](O)[C@@H](OC)C(=O)[C@H](C)C[C@H](C)/C=C/C=C/C=C/1C [SIROLIMUS],–
15 nM,–,–,COCC(=O)[C@H](C)C[C@H](C)\C=C/C=C/C=C(\C)[C@H](C[C@@H]1CC[C@@H](C)[C@](O)(C(=O)C(=O)N2CCCC[C@H]2C(=O)OCc2ccccc2)O1)OC,inactive
110 nM,–,–,COCC(=O)[C@H](C)C[C@H](C)\C=C/C=C/C=C(\C)[C@H](C[C@@H]1CC[C@@H](C)[C@](O)(C(=O)C(=O)N2CCCC[C@H]2C(=O)NCc2ccccc2)O1)OC,inactive
–,–,2 nM,CO[C@@H](C[C@@H]1CC[C@@H](C)[C@](O)(C(=O)C(=O)N2CCCC[C@H]2C(=O)OCc2ccccc2)O1)/C(C)=C/C=C/C=C\[C@@H](C)C[C@@H](C)C(=O)[C@H](OC)[C@H](O)/C(C)=C/[C@@H](C)C(=O)/C=C/[C@H](C)C[C@@H]1CC[C@@H](O)[C@H](OC)C1,inactive
500 nM,–,–,COCC(=O)[C@H](C)C[C@H](C)\C=C/C=C/C=C(\C)[C@H](C[C@@H]1CC[C@@H](C)[C@](O)(C(=O)C(=O)N2CCCC[C@H]2C(=O)O)O1)OC,inactive
